Common to all, as to assay type: in vivo
Experiment [1] has as its system all the transformed Arabidopsis thaliana T1 plants (ALT-1, ALT-2 and ALT-3). Kind of experiment: Herbicide tolerance of Arabidopsis thaliana T1 plants. Particulars: 34 g ai/ha; summary of Table 1 and FIG. 4. The source says: (§1) At cytoplasmic ALT-1-01 T1 plants, At chloroplastic ALT-1-01 T1 plants, At cytoplasmic ALT-2-01 T1 plants, At chloroplastic ALT-2-01 T1 plants, At cytoplasmic ALT-3-01 T1 plants, At chloroplastic ALT-3-01 T1 plants and wild-type Arabidopsis thaliana plants were sprayed with halosulfuron-methyl (34 g ai/ha, 1-fold field concentration) and a blank solvent (water), respectively. Plants were counted for the resistance situations 14 days after spraying: those having a consistent growth status with the blank solvent (water) group after 14 days were classified as highly resistant plants, those having a bolting height less than ½ of that of the blank solvent (water) group after 14 days were classified as moderately resistant plants, those still not capable of bolting after 14 days were classified as poorly resistant plants, and those dead after 14 days were classified as non-resistant plants. Since each Arabidopsis thaliana T1 plant was an independent transformation event, a significant difference in individual T1 responses could be expected at a given dose.
At cytoplasmic ALT-1-01 T1 plants, At chloroplastic ALT-1-01 T1 plants, At cytoplasmic ALT-2-01 T1 plants, At chloroplastic ALT-2-01 T1 plants, At cytoplasmic ALT-3-01 T1 plants, At chloroplastic ALT-3-01 T1 plants and wild-type Arabidopsis thaliana plants in Example 4 were sprayed with iodosulfuron-methyl (10 g ai/ha, 1-fold field concentration), mesosulfuron (14 g ai/ha, 1-fold field concentration) and oxasulfuron (60 g ai/ha, 1-fold field concentration), respectively, in addition to halosulfuron-methyl (34 g ai/ha, 1-fold field concentration) and the blank solvent (water). Plants were counted for the resistance situation 14 days after spraying: those having a consistent growth status with the blank solvent (water) group after 14 days were classified as highly resistant plants, those having a bolting height less than ½ of that of the blank solvent (water) group after 14 days were classified as moderately resistant plants, those still not capable of bolting after 14 days were classified as poorly resistant plants, and those dead after 14 days were classified as non-resistant plants. Since each Arabidopsis thaliana T1 plant was an independent transformation event, a significant difference in individual T1 responses could be expected at a given dose.

In experiment [2] the test system is transgenic maize plants (ALT-1, ALT-2 and ALT-3). Kind of experiment: Halosulfuron-methyl tolerance of maize plants. The settings on record: summary of Table 4. As to the method:
Zm cytoplasmic ALT-1-02 maize plants, Zm chloroplastic ALT-1-02 maize plants, Zm cytoplasmic ALT-2-02 maize plants, Zm chloroplastic ALT-2-02 maize plants, Zm cytoplasmic ALT-3-02 maize plants, Zm chloroplastic ALT-3-02 maize plants and wild-type maize plants were respectively taken and sprayed with halosulfuron-methyl (36 g ai/ha, 4-fold field concentration) and a blank solvent (water). The damage degree caused by the herbicide was measured for each plant according to the plant growth status 3 days after spraying (3 DAT), 7 days after spraying (7 DAT), 14 days after spraying (14 DAT) and 21 days after spraying (21 DAT), respectively: considering a growth status equivalent to that of the untreated plants as having a damage degree of 0%; considering conditions of leaves being partially chlorotic and yellow but substantially not affecting the plant normal growth as having a damage degree of 50%; and considering the whole plant being purple and dying as having a damage degree of 100%. […]

Experiment [3] relates to At cytoplasmic ALT-3-01 T1 plants. Kind of experiment: Herbicide tolerance of Arabidopsis thaliana T1 plants (spray, resistance classes counted). Particulars: 18 g ai/ha (1x Hal.); number of plants 14 days after spraying; Total 28.
Source text: T1 transformants were initially selected from the background of untransformed seeds using a glufosinate selection scheme. About 40000 T1 seeds were screened, and 380 T1 positive transformants (PAT gene) were identified with a transformation efficiency of about 0.95%. The plants that were transformed with the recombinant expression vector DBN100632 were Arabidopsis thaliana plants having an ALT-1-01 nucleotide sequence located in the cytoplasm introduced (At cytoplasmic ALT-1-01), and the plants that were transformed with the recombinant expression vector DBN100631 were Arabidopsis thaliana plants having an ALT-1-01 nucleotide sequence located in the chloroplast introduced (At chloroplastic ALT-1-01); the plants that were transformed with the recombinant expression vector DBN100634 were Arabidopsis thaliana plants having an ALT-2-01 nucleotide sequence located in the cytoplasm introduced (At cytoplasmic ALT-2-01), and the plants that were transformed with the recombinant expression vector DBN100633 were Arabidopsis thaliana plants having an ALT-2-01 nucleotide sequence located in the chloroplast introduced (At chloroplastic ALT-2-01); and the plants that were transformed with the recombinant expression vector DBN100636 were Arabidopsis thaliana plants having an ALT-3-01 nucleotide sequence located in the cytoplasm introduced (At cytoplasmic ALT-3-01), and the plants that were transformed with the recombinant expression vector DBN100635 were Arabidopsis thaliana plants having an ALT-3-01 nucleotide sequence located in the chloroplast introduced (At chloroplastic ALT-3-01). The herbicide tolerance effects of At cytoplasmic ALT-1-01 T1 plants, At chloroplastic ALT-1-01 T1 plants, At cytoplasmic ALT-2-01 T1 plants, At chloroplastic ALT-2-01 T1 plants, At cytoplasmic ALT-3-01 T1 plants, At chloroplastic ALT-3-01 T1 plants and wild-type Arabidopsis thaliana plants on halosulfuron-methyl were detected (14 days after sowing), respectively.
as §1, with “At cytoplasmic ALT-1-01 T1 plants, At chloroplastic ALT-1-01 T1 plants, At cytoplasmic ALT-2-01 T1 plants, At chloroplastic ALT-2-01 T1 plants, At cytoplasmic ALT-3-01 T1 plants, At chloroplastic ALT-3-01 T1 plants and wild-type Arabidopsis thaliana plants were sprayed with halosulfuron-methyl (34 g ai/ha, 1-fold field concentration) and a blank solvent (water), respectively.” left out
[…] Plants were counted for the resistance situation 14 days after spraying: those having a consistent growth status with the blank solvent (water) group after 14 days were classified as highly resistant plants, those having a bolting height less than ½ of that of the blank solvent (water) group after 14 days were classified as moderately resistant plants, those still not capable of bolting after 14 days were classified as poorly resistant plants, and those dead after 14 days were classified as non-resistant plants. Since each Arabidopsis thaliana T1 plant was an independent transformation event, a significant difference in individual T1 responses could be expected at a given dose.

Turning to `COC(=O)c1c(Cl)nn(C)c1S(=O)(=O)NC(=O)Nc1nc(OC)cc(OC)n1` [halosulfuron-methyl, 3-chlorine-5-(4,6-dimethoxypyrimidine-2-aminocarbonylaminosulphonyl)-1-methylpyrazole-4-carboxylic acid methyl ester], in experiment [1], the “tolerance of the plants to the herbicide” value is “conferred halosulfuron-methyl herbicide tolerance to individual Arabidopsis thaliana plants”. In addition, the “tolerance of the plants to the herbicide” value in experiment [2] was “high level of halosulfuron-methyl herbicide tolerance”. In experiment [3], the Highly resistant is listed as 1, the Moderately resistant is 6, the Non-resistant amounted to 5 and the Poorly resistant was 5.

The values are drawn from US20190029257A1, “APPLICATION FOR HERBICIDE-TOLERANT PROTEIN” (BEIJING DABEINONG TECHNOLOGY GROUP CO., LTD., priority 2016, published 2019).
